Here are results for two compounds from ChEMBL document CHEMBL1914352, “Design, synthesis, docking, and biological evaluation of novel diazide-containing isoxazole- and pyrazole-based histone deacetylase probes” (J Med Chem, 2011).

The source made the active and inactive calls. The rule behind the calls is not given here.

As a reminder, the EC50 is the concentration that produces a half-maximal response. Read a high EC50 as lower potency in that assay. One may read the IC50 as the concentration that inhibits the measured activity by half.

Test [1] deals with SH-SY5Y. Put plainly: cells. It counts as functional, cell-based. Particulars: Homo sapiens, 48 h.
Test [2] has as its system SH-SY5Y. Put plainly: cells. The following applies: Homo sapiens, 24 h. It counts as functional, cell-based.
For test [3], the system named is HepG2. Put plainly: cells. It counts as functional, cell-based. The following applies: Homo sapiens, HepG2, 72 h.
The test system of a further test is HeLa. Put plainly: cells. The following applies: Homo sapiens, 24 h. It counts as functional, cell-based.
Test [4] has as its system HepG2. Put plainly: cells. The following applies: Homo sapiens, HepG2, 48 h. The class given is functional, cell-based.
Test [5] addresses T1, Polyamine deacetylase HDAC10 (Homo sapiens, UniProt Q969S8).
T1 sequence (Q969S8 whole entry): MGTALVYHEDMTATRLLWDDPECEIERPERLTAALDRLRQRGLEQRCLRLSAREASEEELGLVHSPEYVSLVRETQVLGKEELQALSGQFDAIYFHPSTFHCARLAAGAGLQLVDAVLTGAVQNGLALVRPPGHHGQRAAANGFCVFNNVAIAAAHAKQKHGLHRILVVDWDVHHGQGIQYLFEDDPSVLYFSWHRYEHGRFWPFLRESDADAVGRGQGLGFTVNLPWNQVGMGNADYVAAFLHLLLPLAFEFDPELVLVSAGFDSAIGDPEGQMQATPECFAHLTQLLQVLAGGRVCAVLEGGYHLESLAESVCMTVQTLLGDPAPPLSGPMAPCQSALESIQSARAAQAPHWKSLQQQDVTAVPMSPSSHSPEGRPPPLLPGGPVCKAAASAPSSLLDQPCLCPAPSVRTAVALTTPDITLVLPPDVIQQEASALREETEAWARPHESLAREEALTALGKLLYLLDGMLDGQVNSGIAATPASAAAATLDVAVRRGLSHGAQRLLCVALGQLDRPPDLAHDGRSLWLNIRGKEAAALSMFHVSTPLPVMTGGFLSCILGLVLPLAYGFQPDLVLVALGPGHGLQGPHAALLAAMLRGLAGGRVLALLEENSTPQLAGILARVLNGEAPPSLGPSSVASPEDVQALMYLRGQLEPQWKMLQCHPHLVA
Put plainly: Inhibition of human recombinant HDAC10 using fluorophore-conjugated substrate Boc-L-Lys(Ac)-AMC after 60 mins.

Another test addresses T2, Histone deacetylase 7 (Homo sapiens, UniProt Q8WUI4).
T2 sequence (Q8WUI4 whole entry): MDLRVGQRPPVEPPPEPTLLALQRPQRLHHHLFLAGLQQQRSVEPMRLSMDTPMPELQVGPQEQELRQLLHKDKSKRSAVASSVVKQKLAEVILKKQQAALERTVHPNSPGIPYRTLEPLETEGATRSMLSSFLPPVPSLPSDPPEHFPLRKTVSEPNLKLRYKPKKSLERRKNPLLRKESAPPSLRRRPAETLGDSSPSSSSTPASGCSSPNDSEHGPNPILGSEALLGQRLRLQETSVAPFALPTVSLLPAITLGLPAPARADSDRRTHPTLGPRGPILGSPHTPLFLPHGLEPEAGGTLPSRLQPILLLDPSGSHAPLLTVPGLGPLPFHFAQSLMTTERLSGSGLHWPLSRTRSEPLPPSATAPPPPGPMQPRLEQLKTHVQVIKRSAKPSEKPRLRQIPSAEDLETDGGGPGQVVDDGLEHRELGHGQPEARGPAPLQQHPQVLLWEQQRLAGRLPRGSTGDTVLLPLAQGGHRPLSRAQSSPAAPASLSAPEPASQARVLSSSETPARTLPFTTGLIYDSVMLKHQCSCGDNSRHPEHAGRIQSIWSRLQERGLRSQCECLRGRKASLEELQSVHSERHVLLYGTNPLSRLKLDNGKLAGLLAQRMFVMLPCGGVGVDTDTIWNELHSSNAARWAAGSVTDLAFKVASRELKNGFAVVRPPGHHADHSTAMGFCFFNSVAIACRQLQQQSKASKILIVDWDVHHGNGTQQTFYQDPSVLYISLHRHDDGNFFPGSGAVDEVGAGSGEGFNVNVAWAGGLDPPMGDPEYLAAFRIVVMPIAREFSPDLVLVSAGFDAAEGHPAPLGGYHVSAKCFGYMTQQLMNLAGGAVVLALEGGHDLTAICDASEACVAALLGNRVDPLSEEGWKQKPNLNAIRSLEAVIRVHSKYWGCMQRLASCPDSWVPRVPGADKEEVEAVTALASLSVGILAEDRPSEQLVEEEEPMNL
Put plainly: Inhibition of human recombinant HDAC7 using fluorophore-conjugated substrate Boc-L-Lys(Ac)-AMC after 60 mins.

The next test concerns the target Histone deacetylase 5 (Homo sapiens, UniProt Q9UQL6). Put plainly: Inhibition of human recombinant HDAC5 using fluorophore-conjugated substrate Boc-L-Lys(Ac)-AMC after 60 mins.
A further test addresses Histone deacetylase 4 (Homo sapiens, UniProt P56524). Put plainly: Inhibition of human recombinant HDAC4 using fluorophore-conjugated substrate Boc-L-Lys(Ac)-AMC after 60 mins.
The target in a further test is Histone deacetylase 2 (Homo sapiens, UniProt Q92769).
A further test deals with Histone deacetylase 1 (Homo sapiens, UniProt Q13547). Put plainly: Inhibition of human recombinant HDAC1 using fluorophore-conjugated substrate Boc-L-Lys(Ac)-AMC after 60 mins.
Another test deals with T3, Histone deacetylase 8 (Homo sapiens, UniProt Q9BY41).
T3 sequence (Q9BY41 whole entry): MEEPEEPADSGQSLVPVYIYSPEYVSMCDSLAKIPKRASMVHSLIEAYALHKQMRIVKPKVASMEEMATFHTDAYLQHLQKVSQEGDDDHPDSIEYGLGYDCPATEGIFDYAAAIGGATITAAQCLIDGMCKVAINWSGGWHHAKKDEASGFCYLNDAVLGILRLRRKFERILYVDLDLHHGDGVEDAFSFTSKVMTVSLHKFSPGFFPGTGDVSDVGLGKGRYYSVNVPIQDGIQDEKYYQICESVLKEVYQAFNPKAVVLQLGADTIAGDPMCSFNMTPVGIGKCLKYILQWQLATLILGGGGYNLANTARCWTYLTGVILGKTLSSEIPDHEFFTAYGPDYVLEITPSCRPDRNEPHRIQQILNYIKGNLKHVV
Put plainly: Inhibition of human recombinant HDAC8 using Fluor de Lys as substrate.

Test [6] concerns the target Histone deacetylase 3/Nuclear receptor corepressor 2 (HDAC3/NCoR2) (Homo sapiens, UniProt O15379). Put plainly: Inhibition of human recombinant HDAC3/NCoR2 using fluorophore-conjugated substrate Boc-L-Lys(Ac)-AMC. It counts as protein-complex assay.
Test [7] addresses Histone deacetylase (Homo sapiens) (UniProt Q13547+O15379+Q9UBN7+Q92769+Q9UQL6+Q8WUI4+Q9BY41+Q96DB2+P56524+Q9UKV0+Q969S8). Put plainly: Inhibition of HDAC in retinoic acid-differentiated human SH-SY5Y cells assessed as increase in histone H4 acetylation at 1 uM after 24 hrs by Western blot analysis in presence of 100 uM LY294002. It counts as cell-based. In general terms: In western blotting, separated proteins are transferred to a membrane and probed.

Test [8] deals with SH-SY5Y. Put plainly: cells. The class given is functional, cell-based. The following applies: Homo sapiens, 72 h.

Histone deacetylase 5, sequence (Q9UQL6 whole entry): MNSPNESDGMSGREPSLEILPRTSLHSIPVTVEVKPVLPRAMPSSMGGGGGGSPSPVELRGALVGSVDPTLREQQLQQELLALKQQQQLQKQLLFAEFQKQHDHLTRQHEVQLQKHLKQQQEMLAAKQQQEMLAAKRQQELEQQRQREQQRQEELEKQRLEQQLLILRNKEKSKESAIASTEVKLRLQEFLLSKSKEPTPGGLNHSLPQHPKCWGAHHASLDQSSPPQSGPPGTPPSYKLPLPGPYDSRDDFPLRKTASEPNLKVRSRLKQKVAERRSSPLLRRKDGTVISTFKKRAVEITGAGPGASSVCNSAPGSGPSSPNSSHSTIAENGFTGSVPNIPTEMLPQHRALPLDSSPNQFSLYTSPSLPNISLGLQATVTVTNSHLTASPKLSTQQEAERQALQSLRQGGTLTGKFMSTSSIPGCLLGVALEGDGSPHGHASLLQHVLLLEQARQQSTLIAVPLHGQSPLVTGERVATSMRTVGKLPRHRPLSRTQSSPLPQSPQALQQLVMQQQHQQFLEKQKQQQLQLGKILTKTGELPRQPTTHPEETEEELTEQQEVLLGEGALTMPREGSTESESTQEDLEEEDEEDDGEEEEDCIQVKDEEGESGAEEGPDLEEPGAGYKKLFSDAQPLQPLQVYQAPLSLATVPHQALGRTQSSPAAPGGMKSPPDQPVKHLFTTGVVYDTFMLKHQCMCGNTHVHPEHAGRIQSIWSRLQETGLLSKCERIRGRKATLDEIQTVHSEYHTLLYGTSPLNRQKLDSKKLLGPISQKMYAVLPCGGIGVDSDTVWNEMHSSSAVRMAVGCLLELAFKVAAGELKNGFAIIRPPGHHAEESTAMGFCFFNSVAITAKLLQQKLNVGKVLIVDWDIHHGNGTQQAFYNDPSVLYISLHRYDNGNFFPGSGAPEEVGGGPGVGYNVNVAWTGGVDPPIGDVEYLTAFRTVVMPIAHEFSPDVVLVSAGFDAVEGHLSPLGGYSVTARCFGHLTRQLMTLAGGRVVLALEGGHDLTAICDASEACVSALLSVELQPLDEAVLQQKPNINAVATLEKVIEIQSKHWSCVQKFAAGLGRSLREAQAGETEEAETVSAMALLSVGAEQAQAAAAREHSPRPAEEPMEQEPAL
Histone deacetylase 1, sequence (Q13547 whole entry): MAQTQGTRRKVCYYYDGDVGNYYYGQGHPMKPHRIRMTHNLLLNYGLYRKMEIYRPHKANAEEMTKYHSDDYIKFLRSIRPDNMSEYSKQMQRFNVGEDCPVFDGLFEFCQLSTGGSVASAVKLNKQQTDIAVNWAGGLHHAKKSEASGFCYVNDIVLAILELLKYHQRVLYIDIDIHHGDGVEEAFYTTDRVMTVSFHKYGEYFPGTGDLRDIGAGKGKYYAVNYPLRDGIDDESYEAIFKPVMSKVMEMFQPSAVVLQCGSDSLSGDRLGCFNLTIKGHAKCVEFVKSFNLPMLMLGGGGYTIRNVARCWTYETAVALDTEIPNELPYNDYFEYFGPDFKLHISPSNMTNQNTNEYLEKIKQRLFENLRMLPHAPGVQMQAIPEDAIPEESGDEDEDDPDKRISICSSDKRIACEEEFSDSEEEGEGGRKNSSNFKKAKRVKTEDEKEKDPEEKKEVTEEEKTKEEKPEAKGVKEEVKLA
Histone deacetylase 2, sequence (Q92769 whole entry): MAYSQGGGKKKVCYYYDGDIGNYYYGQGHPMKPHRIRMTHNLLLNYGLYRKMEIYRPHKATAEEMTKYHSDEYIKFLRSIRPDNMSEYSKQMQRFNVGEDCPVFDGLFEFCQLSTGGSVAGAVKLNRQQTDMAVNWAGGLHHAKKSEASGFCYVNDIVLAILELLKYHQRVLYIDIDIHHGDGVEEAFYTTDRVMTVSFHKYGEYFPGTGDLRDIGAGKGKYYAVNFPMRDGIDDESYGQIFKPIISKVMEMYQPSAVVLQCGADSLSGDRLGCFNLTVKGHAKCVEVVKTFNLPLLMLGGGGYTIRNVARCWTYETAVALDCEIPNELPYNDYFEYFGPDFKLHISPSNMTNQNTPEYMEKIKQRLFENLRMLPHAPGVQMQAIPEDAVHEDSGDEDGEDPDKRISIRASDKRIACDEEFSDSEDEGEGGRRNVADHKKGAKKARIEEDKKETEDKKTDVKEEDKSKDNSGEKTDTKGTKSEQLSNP
Histone deacetylase 3/Nuclear receptor corepressor 2 (HDAC3/NCoR2), sequence (O15379 whole entry): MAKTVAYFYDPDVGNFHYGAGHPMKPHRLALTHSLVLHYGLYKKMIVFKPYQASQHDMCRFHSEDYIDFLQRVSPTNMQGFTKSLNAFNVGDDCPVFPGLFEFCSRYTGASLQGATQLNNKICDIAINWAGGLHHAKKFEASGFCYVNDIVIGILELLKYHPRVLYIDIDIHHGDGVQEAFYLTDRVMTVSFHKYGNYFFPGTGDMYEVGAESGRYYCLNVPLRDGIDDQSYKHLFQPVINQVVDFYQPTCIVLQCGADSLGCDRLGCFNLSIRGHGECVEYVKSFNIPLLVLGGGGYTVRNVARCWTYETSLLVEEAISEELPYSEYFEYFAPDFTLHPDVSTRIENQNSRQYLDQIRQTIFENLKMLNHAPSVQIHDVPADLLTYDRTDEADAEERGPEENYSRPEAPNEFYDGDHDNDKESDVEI
Histone deacetylase 3/Nuclear receptor corepressor 2 (HDAC3/NCoR2), sequence (Q9Y618 whole entry, further chain): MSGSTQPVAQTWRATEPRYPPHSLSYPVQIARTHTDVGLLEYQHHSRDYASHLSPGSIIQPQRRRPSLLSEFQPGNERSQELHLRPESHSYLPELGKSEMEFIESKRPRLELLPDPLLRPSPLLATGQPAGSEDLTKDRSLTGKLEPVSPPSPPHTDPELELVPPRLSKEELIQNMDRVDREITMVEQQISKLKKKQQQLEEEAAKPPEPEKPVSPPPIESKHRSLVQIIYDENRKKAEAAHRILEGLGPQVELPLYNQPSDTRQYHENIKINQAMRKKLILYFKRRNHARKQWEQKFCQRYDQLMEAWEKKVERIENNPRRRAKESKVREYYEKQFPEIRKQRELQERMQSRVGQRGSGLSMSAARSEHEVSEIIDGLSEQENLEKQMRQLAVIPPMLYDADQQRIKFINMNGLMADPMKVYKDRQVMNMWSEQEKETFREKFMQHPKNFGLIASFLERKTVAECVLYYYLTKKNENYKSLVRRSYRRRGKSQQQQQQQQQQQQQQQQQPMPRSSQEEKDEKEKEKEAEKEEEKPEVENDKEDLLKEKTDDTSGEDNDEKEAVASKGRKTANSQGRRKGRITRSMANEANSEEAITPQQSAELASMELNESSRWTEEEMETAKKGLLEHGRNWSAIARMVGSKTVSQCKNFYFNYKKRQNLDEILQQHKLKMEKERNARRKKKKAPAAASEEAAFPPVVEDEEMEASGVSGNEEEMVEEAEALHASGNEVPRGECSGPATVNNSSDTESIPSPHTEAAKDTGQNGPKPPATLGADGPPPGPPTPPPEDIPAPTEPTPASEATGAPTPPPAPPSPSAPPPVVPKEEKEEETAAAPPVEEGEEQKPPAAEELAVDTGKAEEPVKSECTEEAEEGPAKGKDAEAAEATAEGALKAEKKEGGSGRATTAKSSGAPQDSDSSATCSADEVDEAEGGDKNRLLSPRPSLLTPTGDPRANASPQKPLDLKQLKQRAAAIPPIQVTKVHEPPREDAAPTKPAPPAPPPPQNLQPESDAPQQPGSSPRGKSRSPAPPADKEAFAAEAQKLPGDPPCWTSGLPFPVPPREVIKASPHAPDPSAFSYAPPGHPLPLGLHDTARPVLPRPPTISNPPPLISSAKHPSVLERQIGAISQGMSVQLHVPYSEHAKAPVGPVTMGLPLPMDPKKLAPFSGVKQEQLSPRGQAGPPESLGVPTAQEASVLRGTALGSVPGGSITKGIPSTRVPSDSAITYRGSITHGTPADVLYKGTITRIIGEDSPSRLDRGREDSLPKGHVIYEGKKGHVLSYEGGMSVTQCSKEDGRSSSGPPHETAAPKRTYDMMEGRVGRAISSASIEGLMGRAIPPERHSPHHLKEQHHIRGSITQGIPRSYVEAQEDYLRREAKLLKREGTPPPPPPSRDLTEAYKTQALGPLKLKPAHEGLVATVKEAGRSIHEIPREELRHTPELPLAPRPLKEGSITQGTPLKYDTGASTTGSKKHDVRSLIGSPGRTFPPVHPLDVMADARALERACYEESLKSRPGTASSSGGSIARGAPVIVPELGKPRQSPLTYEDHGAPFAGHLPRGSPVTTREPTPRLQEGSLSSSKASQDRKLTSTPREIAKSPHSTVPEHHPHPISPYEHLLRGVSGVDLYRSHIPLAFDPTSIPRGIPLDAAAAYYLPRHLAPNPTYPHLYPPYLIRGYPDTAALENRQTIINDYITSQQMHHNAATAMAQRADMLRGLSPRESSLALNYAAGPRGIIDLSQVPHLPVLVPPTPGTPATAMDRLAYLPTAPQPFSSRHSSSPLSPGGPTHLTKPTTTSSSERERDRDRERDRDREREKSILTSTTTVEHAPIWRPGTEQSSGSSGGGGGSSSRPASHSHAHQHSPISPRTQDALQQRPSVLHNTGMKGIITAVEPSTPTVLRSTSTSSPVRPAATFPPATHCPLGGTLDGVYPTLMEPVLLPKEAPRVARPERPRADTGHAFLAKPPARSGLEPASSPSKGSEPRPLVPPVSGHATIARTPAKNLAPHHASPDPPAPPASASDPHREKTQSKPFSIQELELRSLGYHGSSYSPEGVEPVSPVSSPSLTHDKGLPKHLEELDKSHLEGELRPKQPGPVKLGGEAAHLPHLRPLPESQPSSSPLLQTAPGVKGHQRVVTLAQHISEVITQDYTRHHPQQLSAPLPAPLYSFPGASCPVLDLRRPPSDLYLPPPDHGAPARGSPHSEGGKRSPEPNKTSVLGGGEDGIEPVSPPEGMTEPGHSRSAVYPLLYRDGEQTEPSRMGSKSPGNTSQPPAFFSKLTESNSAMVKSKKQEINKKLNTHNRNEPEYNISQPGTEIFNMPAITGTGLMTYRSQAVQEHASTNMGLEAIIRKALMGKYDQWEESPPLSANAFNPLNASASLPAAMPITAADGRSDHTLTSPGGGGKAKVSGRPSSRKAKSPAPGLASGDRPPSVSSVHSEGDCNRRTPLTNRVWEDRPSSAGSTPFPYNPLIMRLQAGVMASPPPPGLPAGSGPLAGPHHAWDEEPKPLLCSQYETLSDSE

As to `[N-]=[N+]=NCc1cc(Cn2cc(NC(=O)CCCCCCC(=O)NO)cn2)cc(N=[N+]=[N-])c1`, the EC50 was 35.9 µM in the test with SH-SY5Y [1]; more than 50 µM with SH-SY5Y [2]; 13.4 µM in the test with HepG2 [3]; 30.6 µM in the test with HeLa; 24.3 µM in the test with HepG2 [4]; 20.8 µM in the test on SH-SY5Y [8]. Also, the IC50 in test [5] stood at 0.14 µM; at Histone deacetylase 7, 4.51 µM; at Histone deacetylase 5, 0.892 µM; on Histone deacetylase 4, 0.379 µM; against Histone deacetylase 2, 1 µM; on Histone deacetylase 1 it was 0.0991 µM. Besides, the IC50 turned out to be 0.017 µM at Histone deacetylase 8 and 0.128 µM in test [6]. Also, the inhibition entry in test [7] was “Active”.
Turning to `[N-]=[N+]=NCc1cc(N=[N+]=[N-])cc(C(=O)Nc2ccc(-c3cc(C(=O)NCCCCCCC(=O)NO)no3)cc2)c1`, the EC50 with SH-SY5Y [1] was 32.2 µM; in the test on SH-SY5Y [2] it was more than 50 µM; in the test on HepG2 [3] it was 4.9 µM; with HeLa, 26.5 µM; in the test with HepG2 [4], 11.5 µM; with SH-SY5Y [8], 23 µM. In addition, the IC50 in test [5] came to 0.776 µM; at Histone deacetylase 7, 2.23 µM; at Histone deacetylase 5 it was 0.932 µM; at Histone deacetylase 4, 0.432 µM; on Histone deacetylase 2, 0.78 µM; on Histone deacetylase 1 it was 0.0822 µM. For the same compound, the IC50 on Histone deacetylase 8 turned out to be 0.651 µM; in test [6], 0.045 µM. The inhibition result in test [7] was “Active”.
